The values that follow come from patent US20240218242A1, “COMPOUND, FLUORESCENT DYE, KIT, AND METHOD FOR DETECTING CELLS” (NATIONAL UNIVERSITY CORPORATION KOCHI UNIVERSITY, priority 2021, published 2024).

Data set [1] is described as follows: Evaluation of light stability (fluorescence intensity over time under UV excitation). The format is physicochemical. To be noted: 3000 seconds after excitation by UV irradiation; toluene; 5 μM; excitation 378 nm; detection 483 nm. As to the method: The light stability of the compound A obtained in Example 1 was evaluated.
The light stability of the compound A and that of a commercially available solvatochromic dye Laurdan were compared (solvent: toluene; each dye concentration: 5 μM; excitation wavelength: 378 nm; detection wavelength: 483 nm). Laurdan is a compound with a CAS number of 74515-25-6. The fluorescence spectrum measurement was carried out using the same instrument as that used in Example 2.

The nature of data set [2]: Fluorescence spectrum measurement in lipid membrane (liposome). Conditions: compound 2 μM, lipid 200 μM. Format: physicochemical. How it is done:
The fluorescence spectrum of the compound A obtained in Example 1 in a lipid membrane (liposome) was measured. More specifically, the fluorescence spectrum of the compound A in a liposome composed of 1,2-dioleoyl-sn-glycero-3-phosphocholine (DOPC) and sphingomyelin (SM)/cholesterol (Chol) was measured (compound A concentration: 2 μM, lipid concentration: 200 μM). The fluorescence spectrum measurement was carried out using the same instrument as that used in Example 2.

For data set [3], the system named is human prostate cancer cells (PC3). The experiment in a line: Confocal fluorescence imaging of stained cells. Format: cell-based. To be noted: 500 nM, 30 minutes at room temperature; excitation 405 nm; green (490-590 nm) and red (655-755 nm) channels. As to the method: Fluorescence imaging of cells was performed using the compound A obtained in Example 1. More specifically, confocal fluorescence imaging of human prostate cancer cells (PC3) stained with the compound A of the Example was performed (compound A concentration: 500 nM; excitation wavelength: 405 nm).
For microscopic observation, a confocal scanning laser microscope (manufactured by Olympus Corporation, FV1000-D) was used. In the measurement, fluorescence was detected in a green (490-590 nm) channel and a red (655-755 nm) channel using a 405 nm laser light source.
As the human prostate cancer cells used for the observation, cultured cells were used. The compound A (500 nM) was added to the cultured cells, and the mixture was allowed to stand at room temperature for 30 minutes, and then imaging was performed.

Data set [4] relates to human keratinocyte K16 (P4). Nature of the data set: Toxicity evaluation (MTT test). The format is cell-based. To be noted: 100 μM, 24 hours. How it is done:
The toxicity of fluorescence imaging of cells using the compound A obtained in Example 1 was evaluated. More specifically, the toxicity evaluation (MTT test) of the compound A to human keratinocyte K16 (P4) was performed. As a toxicity evaluation procedure, first, a medium containing the compound A at a maximum concentration of 100 μM (maximum DMSO concentration=0.5% v/v) was added to cells to prepare a 2-fold dilution series. After 24 hours, the medium was discarded and an MTT reagent ([…]) was added. After 3 hours, a 10% SDS reagent was added to the cells, and the absorbance at 570 nm was measured the next day.

Data set [5] concerns human skin tissue (frozen tissue). Nature of the data set: Two-photon fluorescence imaging of stained human skin tissue. Conditions: 10 μM; excitation 960 nm; in combination with clearing reagent (LUCID). How it is done: Human skin tissue (frozen tissue) imaging was performed using the compound A obtained in Example 1. More specifically, two-photon fluorescence imaging of human skin tissues (frozen tissues) stained with the compound A of the Example was performed (compound A concentration: 10 μM, excitation wavelength: 960 nm; a clearing reagent (LUCID) was used in combination.).
For microscopy, a two-photon microscope A1R MP+(NIKON) was used. In the measurement, 960 nm was used as a laser light source for excitation for the compound A. Scanning was performed to a depth of 100 μm of the sample. The three-dimensional reconstructed image is obtained by processing the obtained data with attached software.
Human skin tissues were embedded in paraffin and then cut out to prepare tissue sections. The preparation of the sections (thickness: 5 μm) was performed by the procedure usually performed in histopathological examination. For staining with the compound A dye, deparaffinization was performed by a conventional method, and then staining was performed by immersion in the aforementioned dye at room temperature for several days to one week. In practice, the tissues were sufficiently stained by immersion in the dye at room temperature for 2 to 3 days.

The nature of data set [6]: Photophysical properties (absorption spectrum, fluorescence spectrum, fluorescence quantum yield) in organic solvents. The format is physicochemical. To be noted: 5 μM. As to the method: The absorption spectrum and fluorescence spectrum in organic solvents of the compound A obtained in Example 1 were measured.
The absorption spectrum and the fluorescence spectrum were measured using a UV-Visible/NIR spectrophotometer (V-670 manufactured by JASCO Corporation) and a spectrofluorometer (FP6600 manufactured by JASCO Corporation), respectively. The fluorescence quantum yield was measured using an absolute PL quantum yield spectrometer (Hamamatsu Photonics K.K.: C 9920-02V). The concentration of the compound A was 5 μM for each solvent. For solvent species, toluene, dichloromethane, DMSO, and ethanol were used.
The absorption spectrum and fluorescence spectrum in organic solvents of the compound B obtained in Example 8 were measured.
The absorption spectrum and the fluorescence spectrum were measured using a UV-Visible/NIR spectrophotometer (V-670 manufactured by JASCO Corporation) and a spectrofluorometer (FP6600 manufactured by JASCO Corporation), respectively, in the same manner as in Example 2. The fluorescence quantum yield was measured using an absolute PL quantum yield spectrometer (Hamamatsu Photonics K.K.: C 9920-02V). The concentration of the compound B was 5 μM for each solvent. For solvent species, toluene, dichloromethane, DMSO, and ethanol were used.
The absorption spectrum and fluorescence spectrum in organic solvents of the compound C obtained in Example 10 were measured.
The absorption spectrum and the fluorescence spectrum were measured using a UV-Visible/NIR spectrophotometer (V-670 manufactured by JASCO Corporation) and a spectrofluorometer (FP6600 manufactured by JASCO Corporation), respectively, in the same manner as in Example 2. The fluorescence quantum yield was measured using an absolute PL quantum yield spectrometer (Hamamatsu Photonics K.K.: C 9920-02V). The concentration of the compound C was 5 μM for each solvent. For solvent species, toluene, dichloromethane, DMSO, and ethanol were used.

Broadly, the cell viability is the share of living cells, or the viability signal relative to a control. High values mean better survival, low ones a greater loss of cells.

Where only a bound is given, the exact number is not on record here.

As to `CCCCCCCCCCCC(=O)c1ccc2cc(N(C)C)ccc2c1` [Laurdan, reference compound], in data set [1], the “Fluorescence intensity (light stability)” value was no more than 0.6.

Take `CCCC(=O)/C=C/c1ccc2ccc3c(N4CCCCC4)ccc4ccc1c2c43` [compound A]: the Fluorescence quantum yield amounted to 37% in data set [2] (DOPC liposome); 72% in data set [2] (SM/Chol liposome); 86% in data set [6] (DCM); 79% in data set [6] (DMSO); 20% in data set [6] (EtOH); 82% in data set [6] (Toluene). Besides, the Maximum fluorescence wavelength in data set [2] (DOPC liposome) turned out to be 603 nm; in data set [2] (SM/Chol liposome), 577 nm; in data set [6] (DCM), 615 nm; in data set [6] (DMSO), 647 nm; in data set [6] (EtOH), 691 nm; in data set [6] (Toluene) it was 546 nm. The “Fluorescence in cell membrane (plasma membrane) and oil droplets (lipid droplet)” value in data set [3] is recorded as “strong fluorescence was observed in the green channel”. The compound further registered a cell viability in data set [4] of 93.9%. Also, in data set [5], the “Staining of human skin tissue” value is “capable of strongly staining the membrane of each cell constituting the human skin tissue”. The Maximum absorption wavelength stood at 427 nm in data set [6] (DCM), 429 nm in data set [6] (DMSO), 427 nm in data set [6] (EtOH) and 424 nm in data set [6] (Toluene). Also, the Fluorescence solvatochromism entry in data set [6] (toluene, dichloromethane, DMSO, ethanol) is listed as “fluorescence solvatochromism sensitive to solvent polarity was observed”. Also, in data set [1], the “Fluorescence intensity (light stability)” value is given as “the fluorescence intensity was maintained as it was”.
